This note sets out measurements from patent US10519152B2, “Compounds and their use in treating cancer” (AstraZeneca AB, priority 2017, dated 2019).

Structures are written as SMILES. pIC50: −log10 of the molar value.

For test [1], the target named is T1, recombinant human Estrogen Receptor alpha ligand binding domain, residues 307-554 (ER alpha-LBD (GST)) (Homo sapiens, UniProt P03372).
T1 construct: made in house
T1 sequence (P03372 307-554): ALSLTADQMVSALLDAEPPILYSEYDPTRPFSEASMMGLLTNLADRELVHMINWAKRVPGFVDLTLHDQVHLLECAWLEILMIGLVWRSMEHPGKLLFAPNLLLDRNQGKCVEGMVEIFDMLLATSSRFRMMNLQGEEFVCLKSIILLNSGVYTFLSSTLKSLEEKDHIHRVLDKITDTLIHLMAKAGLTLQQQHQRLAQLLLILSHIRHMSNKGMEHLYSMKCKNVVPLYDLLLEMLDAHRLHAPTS
Briefly: ERα binding assay (LanthaScreen TR-FRET competition). The following applies: TR-FRET competition with Fluormone ES2 tracer, 4 hours at room temperature; single experiment or average of two or more.

The target in test [2] is T2, Estrogen Receptor (ERα) in MCF-7 human ductal carcinoma breast cell line (Homo sapiens, UniProt P03372).
T2 construct: endogenous in cells; host or cells: MCF-7
T2 sequence (P03372 1-595): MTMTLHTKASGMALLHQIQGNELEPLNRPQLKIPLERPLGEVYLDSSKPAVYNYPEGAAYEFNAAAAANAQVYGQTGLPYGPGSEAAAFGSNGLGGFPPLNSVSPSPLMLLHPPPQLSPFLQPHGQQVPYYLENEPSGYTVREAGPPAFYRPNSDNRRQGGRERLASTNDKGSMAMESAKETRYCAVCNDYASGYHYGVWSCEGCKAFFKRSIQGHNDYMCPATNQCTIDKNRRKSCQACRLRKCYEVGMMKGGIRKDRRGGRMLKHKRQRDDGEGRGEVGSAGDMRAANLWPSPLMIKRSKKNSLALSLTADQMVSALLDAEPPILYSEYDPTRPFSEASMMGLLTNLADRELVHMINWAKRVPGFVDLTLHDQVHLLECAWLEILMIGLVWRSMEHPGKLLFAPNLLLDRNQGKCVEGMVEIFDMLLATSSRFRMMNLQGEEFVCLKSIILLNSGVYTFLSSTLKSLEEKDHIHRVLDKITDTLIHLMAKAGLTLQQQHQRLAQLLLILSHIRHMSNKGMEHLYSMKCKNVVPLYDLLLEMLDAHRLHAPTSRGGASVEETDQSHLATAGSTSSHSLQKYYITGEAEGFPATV
Kind of test: MCF-7 ER degradation assay (cell based immuno-fluorescence). The following applies: MCF-7 cells; for DC50: 18-22 hours incubation, 50% reduction of ERα expression, single experiment or average of two or more, read-out: MCF-7 ER degradation IC50. In outline:
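MCF-7 human ductal carcinoma breast cells were seeded at 3.75×10^4 cells per mL (40 μL per well) in 384 well plates with phenol red free DMEM containing 2 mM L-Glutamine and 5% (v/v) Charcoal/Dextran treated foetal calf serum. After overnight culture, compounds were acoustically dispensed, incubated 18-22 hours, then cells were formaldehyde-fixed and immunostained for ERα.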

With `Cc1ncsc1-c1ccc(CNC(=O)[C@@H]2C[C@@H](O)CN2C(=O)[C@@H](NC(=O)CN2CCC3(CCN(CCOc4cc(F)c([C@@H]5c6[nH]c7ccccc7c6C[C@@H](C)N5CC(C)(C)F)c(F)c4)CC3)CC2)C(C)(C)C)cc1` [Example 43, (2S,4R)-1-((S)-2-(2-(9-(2-(3,5-difluoro-4-((R,3R)-2-(2-fluoro-2-methylpropyl)-3-methyl-2,3,4,9-tetrahydro-1H-pyrido[3,4-b]indol-1-yl)phenoxy)ethyl)-3,9-diazaspiro[5.5]undecan-3-yl)acetamido)-3,3-dimethylbutanoyl)-4-hydroxy-N-(4-(4-methylthiazol-5-yl)benzyl)pyrrolidine-2-carboxamide], the negative-log IC50 (pIC50) (as a rule, the negative decadic logarithm of the IC50, by convention in mol/L) in test [1] was 8.64. Besides, the DC50 in test [2] stood at 4.8 nM.
As for `Cc1ncsc1-c1ccc(CNC(=O)[C@@H]2C[C@@H](O)CN2C(=O)[C@@H](NC(=O)COCC/C=C/CCOc2ccc([C@@H]3c4[nH]c5ccccc5c4C[C@@H](C)N3CC(F)F)nc2)C(C)(C)C)cc1` [Example 21, (2S,4R)-1-((S)-2-(2-(((E)-6-((6-((1S,3R)-2-(2,2-Difluoroethyl)-3-methyl-2,3,4,9-tetrahydro-1H-pyrido[3,4-b]indol-1-yl)pyridin-3-yl)oxy)hex-3-en-1-yl)oxy)acetamido)-3,3-dimethylbutanoyl)-4-hydroxy-N-(4-(4-methylthiazol-5-yl)benzyl)pyrrolidine-2-carboxamide], the pIC50 in test [1] is 7.89. In addition, in test [2], the DC50 is 300 nM.
In the case of `Cc1ncsc1-c1ccc(CNC(=O)[C@@H]2C[C@@H](O)CN2C(=O)[C@@H](NC(=O)COCCCCCOc2cc(F)c([C@@H]3c4[nH]c5ccccc5c4C[C@@H](C)N3CC(F)(F)CO)c(F)c2)C(C)(C)C)cc1` [Example 70, (2S,4R)-1-((S)-2-(2-((5-(4-((1R,3R)-2-(2,2-Difluoro-3-hydroxypropyl)-3-methyl-2,3,4,9-tetrahydro-1H-pyrido[3,4-b]indol-1-yl)-3,5-difluorophenoxy)pentyl)oxy)acetamido)-3,3-dimethylbutanoyl)-4-hydroxy-N-(4-(4-methylthiazol-5-yl)benzyl)pyrrolidine-2-carboxamide], the negative-log IC50 (pIC50) in test [1] is 9.10. The DC50 in test [2] was 0.9 nM.
Take `Cc1ncsc1-c1ccc(CNC(=O)[C@@H]2C[C@@H](O)CN2C(=O)[C@@H](NC(=O)COCc2cccnc2COc2cc(F)c([C@@H]3c4[nH]c5ccccc5c4C[C@@H](C)N3CC(C)(C)F)c(F)c2)C(C)(C)C)cc1` [Example 133, (2S,4R)-1-((S)-2-(2-((2-((3,5-Difluoro-4-((1R,3R)-2-(2-fluoro-2-methylpropyl)-3-methyl-2,3,4,9-tetrahydro-1H-pyrido[3,4-b]indol-1-yl)phenoxy)methyl)pyridin-3-yl)methoxy)acetamido)-3,3-dimethylbutanoyl)-4-hydroxy-N-(4-(4-methylthiazol-5-yl)benzyl)pyrrolidine-2-carboxamide]: the pIC50 in test [1] was 9.15. Moreover, the DC50 in test [2] is 0.8 nM.
For `Cc1ncsc1-c1ccc(CNC(=O)[C@@H]2C[C@@H](O)CN2C(=O)[C@@H](NC(=O)CN(C)CCCCCOc2cc(F)c(C3c4[nH]c5ccccc5c4C[C@@H](C)N3CC(C)(C)F)c(F)c2)C(C)(C)C)cc1` (stereo partly drawn) [Example 90, (2S,4R)-1-((S)-2-(2-((5-(3,5-Difluoro-4-((1R,3R)-2-(2-fluoro-2-methylpropyl)-3-methyl-2,3,4,9-tetrahydro-1H-pyrido-[3,4-b]indol-1-yl)phenoxy)pentyl)(methyl)amino)acetamido)-3,3-dimethylbutanol)-4-hydroxy-N-(4-(4-methylthiazol-5-yl)benzyl)pyrrolidine-2-carboxamide] the same measures were 8.92 and 102 nM.
For `Cc1ncsc1-c1ccc(CNC(=O)[C@@H]2C[C@@H](O)CN2C(=O)[C@@H](NC(=O)COCCCc2cccc(COc3cc(F)c([C@@H]4c5[nH]c6ccccc6c5C[C@@H](C)N4CC(C)(C)F)c(F)c3)c2)C(C)(C)C)cc1` [Example 73, (2S,4R)-1-((S)-2-(2-(3-(3-((3,5-Difluoro-4-((1R,3R)-2-(2-fluoro-2-methylpropyl)-3-methyl-2,3,4,9-tetrahydro-1H-pyrido[3,4-b]indol-1-yl)phenoxy)methyl)phenyl)propoxy)acetamido)-3,3-dimethylbutanoyl)-4-hydroxy-N-(4-(4-methylthiazol-5-yl)benzyl)pyrrolidine-2-carboxamide], the negative logarithm of the IC50 (pIC50) in test [1] was 9.00. In test [2] (0.3 μM, ER degradation by fulvestrant at 0.3 μM is defined as 100%), the “ER degradation ≥ 90% at 0.3 μM” value is given as “••”.
For the compound `Cc1ncsc1-c1ccc(CNC(=O)[C@@H]2C[C@@H](O)CN2C(=O)[C@@H](NC(=O)CN2CCC3(CC2)CCN(C(=O)COc2cc(F)c([C@@H]4c5[nH]c6ccccc6c5C[C@@H](C)N4CC(C)(C)F)c(F)c2)CC3)C(C)(C)C)cc1` [Example 44, (2S,4R)-1-((S)-2-(2-(9-(2-(3,5-difluoro-4-((R,3R)-2-(2-fluoro-2-methylpropyl)-3-methyl-2,3,4,9-tetrahydro-1H-pyrido[3,4-b]indol-1-yl)phenoxy)acetyl)-3,9-diazaspiro[5.5]undecan-3-yl)acetamido)-3,3-dimethylbutanoyl)-4-hydroxy-N-(4-(4-methylthiazol-5-yl)benzyl)pyrrolidine-2-carboxamide], the pIC50 in test [1] is 8.89. In test [2], the DC50 came to 1.8 nM.
Take `Cc1ncsc1-c1ccc(CNC(=O)[C@@H]2C[C@@H](O)CN2C(=O)[C@@H](NC(=O)CCCN2CCN(CCCOc3cc(F)c([C@@H]4c5[nH]c6ccccc6c5C[C@@H](C)N4CC(C)(C)F)c(F)c3)CC2)C(C)(C)C)cc1` [Example 1, (2S,4R)-1-((S)-2-(4-(4-(3-(3,5-Difluoro-4-((1R,3R)-2-(2-fluoro-2-methylpropyl)-3-methyl-2,3,4,9-tetrahydro-1H-pyrido[3,4-b]indol-1-yl)phenoxy)propyl)piperazin-1-yl)butanamido)-3,3-dimethylbutanoyl)-4-hydroxy-N-(4-(4-methylthiazol-5-yl)benzyl)pyrrolidine-2-carboxamide]: in test [1], the pIC50 was 9.05. Further, the DC50 in test [2] worked out at 0.7 nM.
As for `Cc1ncsc1-c1ccc(CNC(=O)[C@@H]2C[C@@H](O)CN2C(=O)[C@@H](NC(=O)COCCCCOCCOc2ccc([C@@H]3c4[nH]c5ccccc5c4C[C@@H](C)N3CC(F)F)nc2)C(C)(C)C)cc1` [Example 24, (2S,4R)-1-((S)-2-(2-(4-(2-((6-((1S,3R)-2-(2,2-Difluoroethyl)-3-methyl-2,3,4,9-tetrahydro-1H-pyrido[3,4-b]indol-1-yl)pyridin-3-yl)oxy)ethoxy)butoxy)acetamido)-3,3-dimethylbutanoyl)-4-hydroxy-N-(4-(4-methylthiazol-5-yl)benzyl)pyrrolidine-2-carboxamide], the pIC50 in test [1] was 7.74. In test [2], the DC50 came out at 300 nM.
For `Cc1ncsc1-c1ccc([C@H](C)NC(=O)[C@@H]2C[C@@H](O)CN2C(=O)[C@@H](NC(=O)COCCCOCCCCOc2cc(F)c([C@@H]3c4[nH]c5ccccc5c4C[C@@H](C)N3CC(C)(C)F)c(F)c2)C(C)(C)C)cc1` [Example 155, (2S,4R)-1-((S)-2-(2-(3-(4-(3,5-Difluoro-4-((1R,3R)-2-(2-fluoro-2-methylpropyl)-3-methyl-2,3,4,9-tetrahydro-1H-pyrido[3,4-b]indol-1-yl)phenoxy)butoxy)propoxy)acetamido)-3,3-dimethylbutanoyl)-4-hydroxy-N—((S)-1-(4-(4-methylthiazol-5-yl)phenyl)ethyl)pyrrolidine-2-carboxamide] the same measures were 9.52 and 0.7 nM.
For `Cc1ncsc1-c1ccc(CNC(=O)[C@@H]2C[C@@H](O)CN2C(=O)[C@@H](NC(=O)COC2CCN(CCCNC(=O)/C=C/c3cc(F)c([C@@H]4c5[nH]c6ccccc6c5C[C@@H](C)N4CC(C)(C)F)c(F)c3)CC2)C(C)(C)C)cc1` [Example 65, (2S,4R)-1-((S)-2-(2-((1-(3-((E)-3-(3,5-difluoro-4-((1R,3R)-2-(2-fluoro-2-methylpropyl)-3-methyl-2,3,4,9-tetrahydro-1H-pyrido[3,4-b]indol-1-yl)phenyl)acrylamido)propyl)piperidin-4-yl)oxy)acetamido)-3,3-dimethylbutanoyl)-4-hydroxy-N-(4-(4-methylthiazol-5-yl)benzyl)pyrrolidine-2-carboxamide, Trifluoroacetic Acid] the same measures were 8.96 and 4.5 nM.
